As for `COc1ccc(C2=NN(Cc3ccc([N+](=O)[O-])cc3)C(=O)CC2)cc1OC` [Example 1, 2-(4-Nitrobenzyl)-6-(3,4-dimethoxyphenyl) -2,3,4,5-tetrahydropyridazin-3-one], the melting point (usually the temperature, or range, at which the solid turns liquid) is 126 °C.

The values above are taken from US20020111356A1, “Arylalkylpyridazinones” (MERCK KGAA, priority 1995, published 2002).
